Earlier results on one sequence are cited in patent US20250179129A1, “ZINC FINGER PEPTIDES, PEPTIDE ARRAYS, AND METHODS OF USE THEREOF” (The Regents of the University of California, priority 2022, published 2025).

The subject of this data set is single-strand RNA containing a GGU motif.

For the sequence “SDGDWICPDKKCGNVNFARRTSCNRCGREKTT (listed as Homo sapiens) [zinc finger in ZRANB2]”, the “affinity for single-strand RNA containing a GGU motif” value was “micromolar”.
